Results taken from patent US11566007B2, “Ras inhibitors” (Revolution Medicines, Inc., priority 2019, dated 2023).
pEC50, pIC50: −log10 of the molar value. Values joined by “and” are separate entries in the source; they are usually repeats but may differ in a detail not shown here. Equal entries are not always repeated. Where two headings read alike, the source gives them in different places.

How the values were obtained:
NRAS Q61K = NRAS Q61K (Homo sapiens (Human), UniProt P01111+P62937, Q61K); experiment: Ras-Raf (BRAF RBD) disruption / FRET / MOA assay, NRAS Q61K; format: biochemical; details: NRAS Q61K; Ras-Raf disruption/FRET/MOA assay; read-out: IC50* NRAS Q61K FRET data
Chain of NRAS Q61K (P01111 whole entry Q61K): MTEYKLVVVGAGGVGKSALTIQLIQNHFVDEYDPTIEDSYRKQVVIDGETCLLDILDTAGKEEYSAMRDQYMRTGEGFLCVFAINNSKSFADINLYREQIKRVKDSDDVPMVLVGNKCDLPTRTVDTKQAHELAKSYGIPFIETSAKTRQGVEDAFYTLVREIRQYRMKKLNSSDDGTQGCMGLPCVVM
Chain of NRAS Q61K (P62937 whole entry): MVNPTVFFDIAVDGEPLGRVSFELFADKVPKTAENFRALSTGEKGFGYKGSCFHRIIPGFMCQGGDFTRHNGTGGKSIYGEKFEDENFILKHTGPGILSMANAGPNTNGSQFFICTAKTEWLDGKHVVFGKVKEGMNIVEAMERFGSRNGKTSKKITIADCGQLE
Procedure, shortened: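 TR-FRET disruption of nucleotide-loaded Ras binding to BRAF RBD via compound-driven ternary complex with cyclophilin A. Compound as 10-point 3-fold series from 30 μM final, 3 h at 25° C, then anti-His Eu-W1024 (10 nM) and anti-GST allophycocyanin (50 nM) for 1.5 h. IC50 from decreased FRET ratio versus DMSO.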

[1] = tested on: NCI-H358 cells (K-Ras G12C); experiment: Potency assay: pERK in NCI-H358 cells; format: cell-based, human; details: Homo sapiens, NCI-H358; H358 KRAS G12C; read-out: pERK EC50
Procedure, shortened: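 4 h cpd, 37 °C; 10-pt 3-fold series, 10 mM DMSO top stock, duplicates. Readout pERK: AlphaLISA SureFire Ultra or In-Cell Western (IR-800CW secondary, DRAQ5 DNA stain). IC50, 4-PL fit vs log conc.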

KRAS WT = KRAS WT (Homo sapiens (Human), UniProt P01116+P62937); experiment: Ras-Raf (BRAF RBD) disruption / FRET / MOA assay, KRAS WT; format: biochemical; details: read-out: IC50* KRAS WT FRET data
Chain of KRAS WT (P01116-2 other isoform, or with tags, fused parts or gaps): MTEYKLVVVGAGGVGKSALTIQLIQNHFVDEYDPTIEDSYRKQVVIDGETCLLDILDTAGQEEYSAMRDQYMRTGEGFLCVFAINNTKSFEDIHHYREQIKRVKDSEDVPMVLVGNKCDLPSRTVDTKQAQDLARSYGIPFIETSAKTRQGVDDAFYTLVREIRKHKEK
Chain of KRAS WT (P62937 whole entry): as the sequence (P62937 whole entry) above
Procedure, shortened: (§1)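 Ras:RAF disruption was scored as a fall in TR-FRET ratio relative to DMSO. Compound ranged in 3-fold steps over 10 points from 30 μM final; incubation ran 3 h at 25° C, detection antibodies a further 1.5 h. Reported as IC50.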

NRAS G12C = NRAS G12C (Homo sapiens (Human), UniProt P01111+P62937, G12C); experiment: Ras-Raf (BRAF RBD) disruption / FRET / MOA assay, NRAS G12C; format: biochemical
Chain of NRAS G12C (P01111 whole entry G12C): as the sequence (P01111 whole entry Q61K) above, with G12C, K61Q counted along it
Chain of NRAS G12C (P62937 whole entry): as the sequence (P62937 whole entry) above
Procedure, shortened: as §1

KRAS G13D = KRAS G13D (Homo sapiens (Human), UniProt P01116+P62937, G13D); experiment: Ras-Raf (BRAF RBD) disruption / FRET / MOA assay, KRAS G13D; format: biochemical
Chain of KRAS G13D (P01116-2 other isoform, or with tags, fused parts or gaps G13D): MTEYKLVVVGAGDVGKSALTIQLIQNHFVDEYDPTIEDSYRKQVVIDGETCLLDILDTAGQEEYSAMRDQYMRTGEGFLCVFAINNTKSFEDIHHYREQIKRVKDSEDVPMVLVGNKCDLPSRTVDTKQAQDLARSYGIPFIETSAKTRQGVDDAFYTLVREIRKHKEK
Chain of KRAS G13D (P62937 whole entry): as the sequence (P62937 whole entry) above
Procedure, shortened: as §1

KRAS G12S = KRAS G12S (Homo sapiens (Human), UniProt P01116+P62937, G12S); experiment: Ras-Raf (BRAF RBD) disruption / FRET / MOA assay, KRAS G12S; format: biochemical; details: Ras-Raf disruption/FRET/MOA assay; class symbols; read-out: KRAS G12S FRET data IC50
Chain of KRAS G12S (P01116-2 other isoform, or with tags, fused parts or gaps G12S): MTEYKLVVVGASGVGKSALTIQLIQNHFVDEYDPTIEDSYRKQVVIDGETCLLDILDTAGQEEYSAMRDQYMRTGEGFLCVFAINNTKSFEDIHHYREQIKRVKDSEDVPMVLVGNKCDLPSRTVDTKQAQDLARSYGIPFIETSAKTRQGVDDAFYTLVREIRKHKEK
Chain of KRAS G12S (P62937 whole entry): as the sequence (P62937 whole entry) above
Procedure, shortened: as §1

K-Ras G13C = K-Ras G13C (Homo sapiens (Human), UniProt P01116+P62937, G13C); experiment: Ras-Raf (BRAF RBD) disruption / FRET / MOA assay, KRAS G13C; format: biochemical; details: KRAS G13C; Ras-Raf disruption/FRET/MOA assay; read-out: IC50* KRAS G13C FRET data
Chain of K-Ras G13C (P01116-2 other isoform, or with tags, fused parts or gaps G13C): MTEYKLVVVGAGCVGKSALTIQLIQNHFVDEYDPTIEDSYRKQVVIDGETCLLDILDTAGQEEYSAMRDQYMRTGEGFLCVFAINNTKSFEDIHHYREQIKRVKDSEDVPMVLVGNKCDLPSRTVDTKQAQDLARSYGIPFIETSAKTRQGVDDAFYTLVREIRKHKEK
Chain of K-Ras G13C (P62937 whole entry): as the sequence (P62937 whole entry) above
Procedure, shortened: as §1

[2] = read-out: IC50* NRAS G12C FRET data
[3] = read-out: IC50* KRAS G13D FRET data

IC50 (K-Ras G13C)	Structure (SMILES)	pIC50 (NRAS Q61K)	pEC50 [1]	pIC50 (KRAS WT)	pIC50 (NRAS G12C; IC50* NRAS G12C FRET data)	pIC50 (KRAS G13D; IC50* KRAS G13D FRET data)	pIC50 (KRAS G12S)	pIC50 (K-Ras G13C)	pIC50 (NRAS G12C; [2])	pIC50 (KRAS G13D; [3])
–	C=CC(=O)N1CCO[C@@]2(CCN(C(=O)N(C)[C@H](C(=O)N[C@H]3Cc4nc(cs4)-c4ccc5c(c4)c(c(-c4cccnc4[C@H](C)OC)n5CC(F)(F)F)CC(C)(C)COC(=O)[C@@H]4CCCN(N4)C3=O)C(C)C)C2)C1 (atropisomer, axis not shown) [Example A594]	7.00 to 8.00	> 5.30	7.00 to 8.00	7.00 to 8.00	6.00 to 7.00	6.00 to 7.00	7.00 to 8.00	–	–
–	C=CC(=O)N1CCO[C@H]2CN(C(=O)N(C)[C@H](C(=O)N[C@H]3Cc4cccc(c4)-c4ccc5c(c4)c(c(-c4cccnc4[C@H](C)OC)n5CC)CC(C)(C)COC(=O)[C@@H]4CCCN(N4)C3=O)C(C)C)C[C@H]21 (atropisomer, axis not shown) [Example A610]	6.00 to 7.00	> 5.30	6.00 to 7.00	–	–	5.00 to 6.00	7.00 to 8.00	7.00 to 8.00	5.00 to 6.00
–	CCn1c(-c2cccnc2[C@H](C)OC)c2c3cc(ccc31)-c1csc(n1)C[C@H](NC(=O)[C@H](C(C)C)N(C)C(=O)N1C[C@H]3CN(C(=O)C#CC(C)(C)N(C)C)CC[C@H]31)C(=O)N1CCC[C@H](N1)C(=O)OCC(C)(C)C2 (atropisomer, axis not shown) [Example A624]	6.00 to 7.00	> 5.30	6.00 to 7.00	–	–	6.00 to 7.00	6.00 to 7.00	7.00 to 8.00	6.00 to 7.00
1 µM to 10 µM (2×) and > 10 µM	CCn1c(-c2cccnc2[C@H](C)OC)c2c3cc(ccc31)-c1cccc(c1)C[C@H](NC(=O)C(COC1CN(C(=O)C#CC(C)(C)N(C)C)C1)C(C)C)C(=O)N1CCC[C@H](N1)C(=O)OCC(C)(C)C2 (stereo partly drawn) [Example A316, (2R)-2-(((1-(4-(dimethylamino)-4-methylpent-2-ynoyl)azetidin-3-yl)oxy)methyl)-N-((6^3S,4S)-1^1-ethyl-1^2-(2-((S)-1-methoxyethyl)pyridin-3-yl)-10,10-dimethyl-5,7-dioxo-6^1,6^2,6^3,6^4,6^5,6^6-hexahydro-1^1H-8-oxa-1(5,3)-indola-6(1,3)-pyridazina-2(1,3)-benzenacycloundecaphane-4-yl)-3-methylbutanamide]	< 5.00	> 5.30	< 5.00	–	–	< 5.00	–	> 8.00	< 5.00
–	C=CC(=O)N1CCOC2(CCN(C(=O)N(C)[C@H](C(=O)N[C@H]3Cc4nc(cs4)-c4ccc5c(c4)c(c(-c4cccnc4[C@H](C)OC)n5CC)CC(C)(C)COC(=O)[C@@H]4CCCN(N4)C3=O)C(C)C)CC2)C1 (atropisomer, axis not shown) [Example A695]	6.00 to 7.00	> 5.30	6.00 to 7.00	–	–	6.00 to 7.00	7.00 to 8.00	7.00 to 8.00	6.00 to 7.00
–	C=C(C)C(=O)N1CC2(CCN(C(=O)N(C)[C@H](C(=O)N[C@H]3Cc4nc(cs4)-c4ccc5c(c4)c(c(-c4cccnc4[C@H](C)OC)n5CC)CC(C)(C)COC(=O)[C@@H]4CCCN(N4)C3=O)C(C)C)CC2)C1 (atropisomer, axis not shown) [Example A651]	7.00 to 8.00	> 5.30	6.00 to 7.00	–	–	6.00 to 7.00	6.00 to 7.00	7.00 to 8.00	6.00 to 7.00
–	CCn1c(-c2cccnc2[C@H](C)OC)c2c3cc(ccc31)-c1cccc(c1)C[C@H](NC(=O)[C@@H](COC1CN(C(=O)C#CC(C)(C)N(C)CCO)C1)C(C)C)C(=O)N1CCC[C@H](N1)C(=O)OCC(C)(C)C2 (atropisomer, axis not shown) [Example A657]	< 5.00	> 5.30	< 5.00	–	–	< 5.00	5.00 to 6.00	7.00 to 8.00	< 5.00
–	C=CC(=O)N(C)C[C@H]1CCN(C(=O)N(C)[C@H](C(=O)N[C@H]2Cc3nc(cs3)-c3ccc4c(c3)c(c(-c3cccnc3[C@H](C)OC)n4CC)CC(C)(C)COC(=O)[C@@H]3CCCN(N3)C2=O)C(C)C)C1 (atropisomer, axis not shown) [Example A653]	7.00 to 8.00	> 5.30	6.00 to 7.00	–	–	6.00 to 7.00	6.00 to 7.00	7.00 to 8.00	6.00 to 7.00
–	C=CC(=O)N1CCO[C@@H]2CN(C(=O)N(C)[C@H](C(=O)N[C@H]3Cc4nc(cs4)-c4ccc5c(c4)c(c(-c4cccnc4[C@H](C)OC)n5CC)CC(C)(C)COC(=O)[C@@H]4CCCN(N4)C3=O)C(C)C)C[C@H]21 (atropisomer, axis not shown) [Example A543]	7.00 to 8.00	> 5.30	6.00 to 7.00	–	–	6.00 to 7.00	6.00 to 7.00	> 8.00	6.00 to 7.00
–	CCn1c(-c2cccnc2[C@H](C)OC)c2c3cc(ccc31)-c1csc(n1)C[C@H](NC(=O)[C@H](F)COC1CN(C(=O)C#CC(C)(C)N(C)C)C1)C(=O)N1CCC[C@H](N1)C(=O)OCC(C)(C)C2 (atropisomer, axis not shown) [Example A627]	< 5.00	> 5.30	< 5.00	–	–	< 5.00	< 5.00	> 8.00	< 5.00
–	C=CC(=O)N1CC2(CCN2C(=O)N(C)[C@H](C(=O)N[C@H]2Cc3cccc(c3)-c3ccc4c(c3)c(c(-c3cccnc3[C@H](C)OC)n4CC)CC(C)(C)COC(=O)[C@@H]3CCCN(N3)C2=O)C(C)C)C1 (atropisomer, axis not shown) [Example A684]	6.00 to 7.00	> 5.30	6.00 to 7.00	–	–	6.00 to 7.00	6.00 to 7.00	> 8.00	6.00 to 7.00
–	C=CC(=O)N1CC[C@H](C(=O)N(C)[C@H](C(=O)N[C@H]2Cc3cc(F)cc(c3)-c3ccc4c(c3)c(c(-c3cccnc3[C@H](C)OC)n4CC)CC(C)(C)COC(=O)[C@@H]3CCCN(N3)C2=O)C(C)C)C1 (atropisomer, axis not shown) [Example A342]	5.00 to 6.00	> 5.30	5.00 to 6.00	–	–	5.00 to 6.00	6.00 to 7.00	6.00 to 7.00	5.00 to 6.00
–	C/C=C/C(=O)N1CC2(CCN(C(=O)N(C)[C@H](C(=O)N[C@H]3Cc4nc(cs4)-c4ccc5c(c4)c(c(-c4cccnc4[C@H](C)OC)n5CC)CC(C)(C)COC(=O)[C@@H]4CCCN(N4)C3=O)C(C)C)CC2)C1 (atropisomer, axis not shown) [Example A671]	7.00 to 8.00	> 5.30	6.00 to 7.00	–	–	6.00 to 7.00	6.00 to 7.00	7.00 to 8.00	6.00 to 7.00
–	C=CC(=O)N1CC[C@H](C(=O)N(C)[C@H](C(=O)N[C@H]2Cc3nc(ns3)-c3ccc4c(c3)c(c(-c3cncnc3)n4CC)CC(C)(C)COC(=O)[C@@H]3CCCN(N3)C2=O)C(C)C)C1 [Example A285]	< 5.00	> 5.30	< 5.00	–	–	< 5.00	< 5.00	< 5.00	< 5.00
–	C=CC(=O)N1CC[C@H]2[C@@H](C1)CN2C(=O)N(C)[C@H](C(=O)N[C@H]1Cc2nc(cs2)-c2ccc3c(c2)c(c(-c2cccnc2[C@H](C)OC)n3CC)CC(C)(C)COC(=O)[C@@H]2CCCN(N2)C1=O)C(C)C (atropisomer, axis not shown) [Example A687]	7.00 to 8.00	> 5.30	6.00 to 7.00	–	–	6.00 to 7.00	6.00 to 7.00	6.00 to 7.00	6.00 to 7.00
